Legend:
KAT6A = biological target: T1, KAT6A (Homo sapiens, UniProt Q92794); assay: KAT6A enzyme inhibition assay (SAMDI mass spectrometry); format: biochemical; conditions: His-TEV-KAT6A 501-784 enzyme construct
T1 construct: His-TEV tag (N, cleaved yes); made in house

KAT5 = biological target: T2, KAT5 (Homo sapiens, UniProt Q92993); assay: KAT5 enzyme inhibition assay (SAMDI mass spectrometry); format: biochemical; conditions: His-TEV-FL KAT5-Flag enzyme construct
T2 construct: His-TEV tag (N, cleaved yes); made in house
T2 sequence (Q92993 with tags, fused parts or gaps): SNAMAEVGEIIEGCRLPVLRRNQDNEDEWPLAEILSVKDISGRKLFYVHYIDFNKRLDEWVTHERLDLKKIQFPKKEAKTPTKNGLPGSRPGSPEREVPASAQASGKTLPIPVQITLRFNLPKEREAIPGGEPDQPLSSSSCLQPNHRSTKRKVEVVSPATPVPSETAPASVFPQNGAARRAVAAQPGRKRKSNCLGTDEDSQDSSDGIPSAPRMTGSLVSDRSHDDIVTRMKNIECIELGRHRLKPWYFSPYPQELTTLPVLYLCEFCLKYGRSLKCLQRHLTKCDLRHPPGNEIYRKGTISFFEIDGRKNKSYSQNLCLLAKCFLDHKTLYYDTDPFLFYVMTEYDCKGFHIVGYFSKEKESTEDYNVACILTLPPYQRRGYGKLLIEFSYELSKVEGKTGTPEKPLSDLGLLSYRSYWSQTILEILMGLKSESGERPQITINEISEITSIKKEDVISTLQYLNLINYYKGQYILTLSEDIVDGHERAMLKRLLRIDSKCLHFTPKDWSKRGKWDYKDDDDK

T1 sequence (Q92794 with tags, fused parts or gaps): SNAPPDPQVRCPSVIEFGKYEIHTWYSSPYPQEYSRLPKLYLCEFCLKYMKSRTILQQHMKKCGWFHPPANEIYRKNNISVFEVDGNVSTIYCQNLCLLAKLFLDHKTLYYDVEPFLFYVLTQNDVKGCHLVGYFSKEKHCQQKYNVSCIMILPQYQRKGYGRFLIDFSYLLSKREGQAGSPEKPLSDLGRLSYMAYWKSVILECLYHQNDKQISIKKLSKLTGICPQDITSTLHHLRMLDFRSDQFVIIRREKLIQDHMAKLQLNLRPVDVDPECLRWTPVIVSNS

IC50 (KAT6A) | IC50 (KAT5) | SMILES
> 100 µM | > 100 µM | CNC(=O)CCNC(=O)Cn1nc(C)c(F)c1C(=O)NNS(=O)(=O)C1CCCCC1 [Compound I-505]
> 100 µM | > 100 µM | Cn1ncc2c(C(=O)NNS(=O)(=O)c3ccccc3)cc(-c3ccccc3)cc21 [Compound I-20]
> 100 µM | > 100 µM | COc1c(C)cc(-c2ccccc2)cc1C(=O)NNS(=O)(=O)C1CCCCC1 [Compound I-311]
50 to 100 µM | > 100 µM | Cc1cc(-c2ccccc2)cc(C(=O)NNS(=O)(=O)C2CCCNC2)c1F (stereo not shown) [Compound I-97]
> 100 µM | > 100 µM | Cc1cccc(F)c1C(=O)NNS(=O)(=O)CC(Cc1ccccc1)C(C)C (stereo not shown) [Compound I-266]
10 to 50 µM | > 100 µM | Cc1cc(-c2ccccc2)cc(C(=O)NNS(=O)(=O)C2CN(C(=O)C(C)C)C2)c1F [Compound I-114]
10 to 50 µM | > 100 µM | Cc1cc(-c2cccc(OCCN(C)C)c2)cc(C(=O)NNS(=O)(=O)c2ccccc2)c1F [Compound I-386]
> 100 µM | > 100 µM | Cc1nn(-c2ccccc2)cc1C(=O)NNS(=O)(=O)c1ccccc1 [Compound I-124]
> 100 µM | > 100 µM | CC(=O)N1CCC(S(=O)(=O)NNC(=O)c2cc(Cl)cc(Cl)c2F)CC1 [Compound I-435]
> 100 µM | 50 to 100 µM | O=C(NCCO)c1cc(Cl)c(F)c(C(=O)NNS(=O)(=O)C2CCCCC2)c1 [Compound I-470]
> 100 µM | 50 to 100 µM | Cc1cc(-c2ccccc2)cc(C(=O)NNS(=O)(=O)CC2CCNCC2)c1F [Compound I-141]
10 to 50 µM | 10 to 50 µM | CNCCC(=O)N1CCCC(CS(=O)(=O)NNC(=O)c2cc(-c3ccccc3)cc(C)c2F)C1 (stereo not shown) [Compound I-333]
≤ 10 µM | 10 to 50 µM | CCc1cccc(S(=O)(=O)NNC(=O)c2cc(-c3ccccc3)cc(C)c2F)c1 [Compound I-221]
≤ 10 µM | ≤ 10 µM | Cc1cc(-c2cccc(F)c2)cc(C(=O)NNS(=O)(=O)C2CCOCC2)c1F [Compound I-377]
10 to 50 µM | ≤ 10 µM | Cc1cc(-c2ccccc2F)cc(C(=O)NNS(=O)(=O)CC2CCCCC2)c1F [Compound I-269]
50 to 100 µM | 10 to 50 µM | Cc1cc(Cl)cc(C(=O)NNS(=O)(=O)C2CCCCC2)c1F [Compound I-299]
10 to 50 µM | 50 to 100 µM | COCCC(=O)N1CC(S(=O)(=O)NNC(=O)c2cc(-c3ccccc3)cc(C)c2F)C1 [Compound I-115]
≤ 10 µM | ≤ 10 µM | Cc1cc(-c2ccccc2)cc(C(=O)NNS(=O)(=O)CC2CCOCC2)c1F [Compound I-267]
≤ 10 µM | > 100 µM | O=C(NNS(=O)(=O)C1CCOCC1)c1cc(-c2ccc(O)cc2)cc(Cl)c1F [Compound I-459]
> 100 µM | > 100 µM | CCS(=O)(=O)NNC(=O)c1c(F)ccc(-c2ccccc2)c1C [Compound I-228]
10 to 50 µM | 10 to 50 µM | Cc1cc(-c2ccccc2)cc(C(=O)NNS(=O)(=O)C2CCNC2)c1F (stereo not shown) [Compound I-23]
> 100 µM | 10 to 50 µM | O=C(NNS(=O)(=O)C1CCCCC1)c1cc(Cl)cc(Cl)c1F [Compound I-413]
> 100 µM | > 100 µM | Cn1cnc2cc(-c3ccccc3)cc(C(=O)NNS(=O)(=O)C3CCCCC3)c21 [Compound I-441]
> 100 µM | > 100 µM | Cc1cc(-c2ccccc2)cc(C(=O)NNc2ncccn2)c1F [Compound I-309]
10 to 50 µM | 10 to 50 µM | CCc1cc(F)cc(-c2cc(Cl)c(F)c(C(=O)NNS(=O)(=O)C3CCCCC3)c2)c1 [Compound I-498]

IC50 (KAT6A) | IC50 (KAT5) | SMILES
> 100 µM | > 100 µM | O=C(NNS(=O)(=O)c1ccccc1)c1ncccn1 [Compound I-189]
≤ 10 µM | ≤ 10 µM | O=C(NNS(=O)(=O)C1CCCCC1)c1cc(-c2ccccc2)cc(Cl)c1F [Compound I-306]
> 100 µM | > 100 µM | O=C(NNS(=O)(=O)C1CCCCC1)c1c(Cl)ccc(Cl)c1F [Compound I-461]
50 to 100 µM | > 100 µM | O=C(NNS(=O)(=O)C1CCCCC1)c1nc(-c2ccccc2)cc(Cl)c1F [Compound I-479]
10 to 50 µM | 50 to 100 µM | CC(=O)N1CC(S(=O)(=O)NNC(=O)c2cc(-c3ccccc3)cc(C)c2F)C1 [Compound I-40]
≤ 10 µM | 50 to 100 µM | O=C(NNS(=O)(=O)c1ccccc1)c1c(F)ccc(-c2ccccn2)c1F [Compound I-132]
10 to 50 µM | 50 to 100 µM | O=C(NNS(=O)(=O)c1ccccc1)c1c(F)ccc(-c2cnc[nH]2)c1F [Compound I-497]
> 100 µM | > 100 µM | Cc1cc(-c2ccccc2)cc(C(=O)NNS(=O)(=O)C(C)(C)C)c1F [Compound I-21]
> 100 µM | > 100 µM | Cn1cnc2c(C(=O)NNS(=O)(=O)C3CCCCC3)cc(-c3ccccc3)cc21 [Compound I-283]
≤ 10 µM | ≤ 10 µM | Cc1cc(-c2cccc(F)c2F)cc(C(=O)NNS(=O)(=O)c2ccccc2)c1F [Compound I-362]
> 100 µM | > 100 µM | CC1CCCC(C)N1C(=O)NNS(=O)(=O)c1ccccc1 (stereo not shown) [Compound I-15]
10 to 50 µM | ≤ 10 µM | Cc1cc(-c2ccccc2F)cc(C(=O)NNS(=O)(=O)C2CCCCC2)c1F [Compound I-321]
> 100 µM | > 100 µM | O=C(NNS(=O)(=O)C1CCCCC1)c1c(F)c(-c2ccccc2)cc2nc[nH]c12 [Compound I-467]
10 to 50 µM | ≤ 10 µM | Cc1cc(Cl)cc(C(=O)NNS(=O)(=O)CC2CCCCC2)c1F [Compound I-276]
> 100 µM | > 100 µM | CNC(=O)c1cc(Cl)c(F)c(C(=O)NNS(=O)(=O)C2CCOCC2)c1 [Compound I-491]
> 100 µM | > 100 µM | Cn1nc(NNS(=O)(=O)c2ccccc2)c2cccc(-c3ccccc3)c21 [Compound I-49]
10 to 50 µM | 10 to 50 µM | Cc1cc(-c2ccccc2)cc(C(=O)NNS(=O)(=O)C2COC2)c1F [Compound I-55]
≤ 10 µM | ≤ 10 µM | Cc1cc(-c2cccc(F)c2)cc(C(=O)NNS(=O)(=O)CC2CCN(C(=O)CCN(C)C(=O)OC(C)(C)C)CC2)c1F [Compound I-327]
> 100 µM | 10 to 50 µM | CC(C)(C)OC(=O)N1CCC(S(=O)(=O)NNC(=O)c2cc(Cl)cc(Cl)c2F)CC1 [Compound I-405]
10 to 50 µM | ≤ 10 µM | O=C(NNS(=O)(=O)C1CCCCC1)c1cc(-c2cc(F)cc(F)c2)cc(Cl)c1F [Compound I-392]
> 100 µM | > 100 µM | COCCN(C)C(=O)c1cc(Cl)c(F)c(C(=O)NNS(=O)(=O)C2CCOCC2)c1 [Compound I-471]
10 to 50 µM | > 100 µM | O=C(NNS(=O)(=O)c1cccc(Cl)c1)c1ccccc1F [Compound I-127]
≤ 10 µM | ≤ 10 µM | Cc1cc(-c2ccccc2)cc(C(=O)NNS(=O)(=O)c2cccnc2)c1F [Compound I-175]
> 100 µM | > 100 µM | Cc1c(-c2ccccc2)ccc(F)c1C(=O)NNC(=O)c1ccccc1 [Compound I-171]
10 to 50 µM | 10 to 50 µM | CCS(=O)(=O)NNC(=O)c1cc(-c2ccccc2)cc(C)c1F [Compound I-2]
